From paper PMC3391414 (Journal of Agricultural and Food Chemistry, 2011)
Where two headings read alike, the source gives them in different places. One block for each molecule: values may come before it.

Experiments:
UGT1A1 [1] = target: T1, UGT1A1 (Homo sapiens, UniProt P22309); details: pH 7.4
T1 sequence (P22309 26-533): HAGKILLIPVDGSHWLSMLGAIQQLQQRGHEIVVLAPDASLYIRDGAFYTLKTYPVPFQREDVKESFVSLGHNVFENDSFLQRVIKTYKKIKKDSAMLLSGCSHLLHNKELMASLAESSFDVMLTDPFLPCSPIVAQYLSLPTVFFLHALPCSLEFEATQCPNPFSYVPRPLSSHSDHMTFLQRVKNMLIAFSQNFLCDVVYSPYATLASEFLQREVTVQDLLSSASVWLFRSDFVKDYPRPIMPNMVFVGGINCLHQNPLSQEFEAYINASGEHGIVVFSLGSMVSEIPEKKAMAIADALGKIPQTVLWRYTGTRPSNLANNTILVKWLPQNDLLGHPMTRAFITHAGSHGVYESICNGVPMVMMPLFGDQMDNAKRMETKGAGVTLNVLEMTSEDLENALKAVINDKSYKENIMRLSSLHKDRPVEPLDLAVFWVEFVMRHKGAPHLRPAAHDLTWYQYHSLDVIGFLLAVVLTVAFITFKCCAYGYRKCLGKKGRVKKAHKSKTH

[2] = system: UGT 1A1, 1A3, 1A6, 1A7, 1A8, 1A9, 1A10 and 2B7; details: human, 10 μM, pH 7.4
UGT1A3 [3] = target: T2, UGT1A3 (Homo sapiens, UniProt P35503); details: pH 7.4
T2 sequence (P35503 29-534): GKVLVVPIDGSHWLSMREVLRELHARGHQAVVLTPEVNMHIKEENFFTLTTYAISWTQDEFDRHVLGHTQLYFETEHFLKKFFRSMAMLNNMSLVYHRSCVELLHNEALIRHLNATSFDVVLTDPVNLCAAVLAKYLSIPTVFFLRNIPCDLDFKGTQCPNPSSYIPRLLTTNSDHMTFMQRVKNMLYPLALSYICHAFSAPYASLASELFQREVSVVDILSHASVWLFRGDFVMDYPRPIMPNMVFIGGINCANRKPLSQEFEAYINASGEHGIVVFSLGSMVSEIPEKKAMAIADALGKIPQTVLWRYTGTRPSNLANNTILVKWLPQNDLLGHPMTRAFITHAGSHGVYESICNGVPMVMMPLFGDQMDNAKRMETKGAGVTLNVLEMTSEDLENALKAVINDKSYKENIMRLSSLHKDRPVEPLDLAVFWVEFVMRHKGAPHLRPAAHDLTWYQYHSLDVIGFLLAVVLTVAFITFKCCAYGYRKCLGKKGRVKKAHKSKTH

UGT1A9 [4] = target: T3, UGT1A9 (Homo sapiens, UniProt O60656); details: pH 7.4
T3 sequence (O60656 26-530): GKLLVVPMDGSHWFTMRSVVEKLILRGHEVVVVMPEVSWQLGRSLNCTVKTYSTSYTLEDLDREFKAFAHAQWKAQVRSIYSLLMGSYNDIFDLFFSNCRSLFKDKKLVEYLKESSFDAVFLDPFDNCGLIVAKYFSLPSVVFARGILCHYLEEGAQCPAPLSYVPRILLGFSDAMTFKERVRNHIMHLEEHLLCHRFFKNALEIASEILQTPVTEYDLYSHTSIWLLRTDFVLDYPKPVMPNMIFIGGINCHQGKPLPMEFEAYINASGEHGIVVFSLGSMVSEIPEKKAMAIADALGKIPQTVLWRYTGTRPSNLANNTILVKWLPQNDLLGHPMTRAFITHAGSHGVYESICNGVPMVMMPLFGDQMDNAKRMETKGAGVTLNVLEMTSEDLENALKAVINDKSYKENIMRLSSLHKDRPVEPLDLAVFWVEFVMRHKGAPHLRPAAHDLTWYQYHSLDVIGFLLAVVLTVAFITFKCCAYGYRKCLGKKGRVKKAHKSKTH

UGT1A10 = target: T4, UGT1A10 (Homo sapiens, UniProt Q9HAW8); assay: Glucuronidation by recombinant human UGT1A10; details: UGT1A10, substrate 10 μM
T4 sequence (Q9HAW8 26-530): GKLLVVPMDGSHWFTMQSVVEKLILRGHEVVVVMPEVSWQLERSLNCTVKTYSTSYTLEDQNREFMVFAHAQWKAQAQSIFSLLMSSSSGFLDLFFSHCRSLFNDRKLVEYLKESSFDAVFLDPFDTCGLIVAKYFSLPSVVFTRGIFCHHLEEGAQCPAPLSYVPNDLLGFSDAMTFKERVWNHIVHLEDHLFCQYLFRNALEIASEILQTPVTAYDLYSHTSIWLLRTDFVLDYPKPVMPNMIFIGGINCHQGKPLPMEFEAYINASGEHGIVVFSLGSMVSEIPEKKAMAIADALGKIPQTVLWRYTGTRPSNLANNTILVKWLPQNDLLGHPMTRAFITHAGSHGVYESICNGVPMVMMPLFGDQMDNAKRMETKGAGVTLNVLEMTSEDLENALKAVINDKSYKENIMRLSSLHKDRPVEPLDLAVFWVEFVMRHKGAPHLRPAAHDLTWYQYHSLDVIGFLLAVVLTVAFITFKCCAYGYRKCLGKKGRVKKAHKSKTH

UGT1A1 [5] = target: T1, UGT1A1; assay: Glucuronidation by recombinant human UGT1A1
UGT1A3 [6] = target: T2, UGT1A3; assay: Glucuronidation by recombinant human UGT1A3
UGT1A9 [7] = target: T3, UGT1A9; assay: Glucuronidation by recombinant human UGT1A9
UGT2B7 = target: T5, UGT2B7 (Homo sapiens, UniProt P16662); assay: Glucuronidation by recombinant human UGT2B7; details: UGT2B7, substrate 10 μM
T5 sequence (P16662 24-529): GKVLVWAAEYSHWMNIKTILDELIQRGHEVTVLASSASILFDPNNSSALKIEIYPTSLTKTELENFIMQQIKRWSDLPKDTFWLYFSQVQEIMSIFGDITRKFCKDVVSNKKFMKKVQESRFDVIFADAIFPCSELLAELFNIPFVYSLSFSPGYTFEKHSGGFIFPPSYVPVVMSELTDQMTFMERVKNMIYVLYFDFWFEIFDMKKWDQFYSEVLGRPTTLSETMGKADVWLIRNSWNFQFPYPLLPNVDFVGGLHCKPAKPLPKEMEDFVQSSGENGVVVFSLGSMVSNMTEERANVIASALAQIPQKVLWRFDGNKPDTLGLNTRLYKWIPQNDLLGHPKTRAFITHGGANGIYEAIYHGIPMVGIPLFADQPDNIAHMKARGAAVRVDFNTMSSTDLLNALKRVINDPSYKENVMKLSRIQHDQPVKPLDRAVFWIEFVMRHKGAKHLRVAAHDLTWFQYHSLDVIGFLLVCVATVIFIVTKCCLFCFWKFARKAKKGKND

UGT1A6 = target: T6, UGT1A6 (Homo sapiens, UniProt P19224); assay: Glucuronidation by recombinant human UGT1A6; details: UGT1A6, substrate 10 μM
T6 sequence (P19224 27-532): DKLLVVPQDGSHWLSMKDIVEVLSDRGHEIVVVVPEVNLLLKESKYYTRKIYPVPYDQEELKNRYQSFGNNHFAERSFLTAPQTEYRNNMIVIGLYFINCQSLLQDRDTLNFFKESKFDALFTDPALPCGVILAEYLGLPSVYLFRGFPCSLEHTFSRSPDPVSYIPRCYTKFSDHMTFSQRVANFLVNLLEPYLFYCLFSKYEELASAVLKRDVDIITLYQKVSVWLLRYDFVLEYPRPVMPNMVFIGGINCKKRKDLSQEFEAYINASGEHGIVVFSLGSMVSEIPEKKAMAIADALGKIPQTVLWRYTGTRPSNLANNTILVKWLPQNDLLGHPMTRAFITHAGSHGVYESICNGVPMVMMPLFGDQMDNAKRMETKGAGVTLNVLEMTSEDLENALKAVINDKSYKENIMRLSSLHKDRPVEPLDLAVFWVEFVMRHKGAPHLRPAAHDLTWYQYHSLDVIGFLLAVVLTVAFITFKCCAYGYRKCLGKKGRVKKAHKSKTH

[8] = cited from earlier work
[9] = cited from earlier work; remark: listed apart in the source
[10] = bioavailability studies in humans; cited from earlier work
UGT1A9 [11] = target: T3, UGT1A9; details: cited from earlier work

Degree of regiospecificity (major glucuronide in bracket) (UGT1A1 [1]; 2.5 μM): Dominant (7-O)
Degree of regiospecificity (major glucuronide in bracket) (UGT1A1 [1]; 10 μM): Dominant (7-O)
Degree of regiospecificity (major glucuronide in bracket) (UGT1A3 [3]; 2.5 μM): Dominant (7-O)
Degree of regiospecificity (major glucuronide in bracket) (UGT1A3 [3]; 10 μM): Dominant (7-O)
Degree of regiospecificity (major glucuronide in bracket) (UGT1A9 [4]; 2.5 μM): Dominant (7-O)
Degree of regiospecificity (major glucuronide in bracket) (UGT1A9 [4]; 10 μM): Dominant (7-O)
SMILES: O=c1cc(-c2ccc(O)cc2)oc2cc(O)cc(O)c12 [5,7,4'THF, 5,7,4’-trihydroxyflavone]
Glucuronidation and regiospecificity across the 8 UGT isoforms [2]: all isoforms showed dominant regiospecific glucuronidation of hydroxyl group at C-7 position only

Degree of regiospecificity (major glucuronide in bracket) (UGT1A1 [5]; UGT1A1, substrate 2.5 μM): No (3-O, 7-O)
Degree of regiospecificity (major glucuronide in bracket) (UGT1A1 [5]; UGT1A1, substrate 10 μM): No (3-O, 7-O)
Degree of regiospecificity (major glucuronide in bracket) (UGT1A3 [6]; UGT1A3, substrate 2.5 μM): Dominant (7-O)
Degree of regiospecificity (major glucuronide in bracket) (UGT1A3 [6]; UGT1A3, substrate 10 μM): Weak (7-O)
Degree of regiospecificity (major glucuronide in bracket) (UGT1A9 [7]; UGT1A9, substrate 2.5 μM): Moderate (3-O)
Degree of regiospecificity (major glucuronide in bracket) (UGT1A9 [7]; UGT1A9, substrate 10 μM): Moderate (3-O)
Degree of regiospecificity (major glucuronide in bracket) (UGT1A9 [7]; UGT1A9, substrate 10 μM, listed as 7,4’DHFnol): moderate
Hydroxyl positions glucuronidated (UGT1A6): no position was glucuronidated
SMILES: O=c1c(O)c(-c2ccc(O)cc2)oc2cc(O)ccc12 [7,4'DHFnol, 3,7,4’-trihydroxyflavone]
Hydroxyl positions glucuronidated (UGT1A10): glucuronidated all the three hydroxyl groups
Hydroxyl positions glucuronidated (UGT1A1 [5]; UGT1A1, substrate 10 μM): glucuronidated all the three hydroxyl groups
Degree of regiospecificity (major glucuronide in bracket) (UGT1A1 [5]; UGT1A1, substrate 10 μM, listed as 7,4’DHFnol): no regiospecific preference for any position
Hydroxyl positions glucuronidated (UGT1A3 [6]; UGT1A3, substrate 10 μM): glucuronidated hydroxyl groups at C-3 and C-7 positions only
Degree of regiospecificity (major glucuronide in bracket) (UGT1A3 [6]; UGT1A3, substrate 10 μM, listed as 7,4’DHFnol): weak regiospecific preference for 7-O over 3-O position
Hydroxyl positions glucuronidated (UGT1A9 [7]; UGT1A9, substrate 10 μM): glucuronidated hydroxyl groups at C-3 and C-7 positions only
Hydroxyl positions glucuronidated (UGT2B7): glucuronidated all the three hydroxyl groups

SMILES: O=c1c(-c2ccc(O)cc2)coc2cc(O)cc(O)c12 [genistein]
Cmax of 7-O-glucuronide relative to 4’-O-glucuronide ([8]; intravenous administration of genistein): four times higher
Cmax of 7-O-G relative to 4’-O-glucuronide ([8]; per-oral administration of genistein): 1.85 times

SMILES: O=C(O)[C@H]1O[C@@H](Oc2cc(O)c3c(=O)c(O)c(-c4ccc(O)c(O)c4)oc3c2)[C@H](O)[C@@H](O)[C@@H]1O [quercetin,7-O-G]
Antioxidative property [9]: stronger antioxidative property than quercetin,3-O-G

SMILES: O=c1c(O)c(-c2ccc(O)c(O)c2)oc2cc(O)cc(O)c12 [quercetin, 3,5,7,3’-4’-pentahydroxyflavone]
Main glucuronide found [10]: 3-O-glucuronide of quercetin was also the main glucuronide
Catalytic efficiency order for regiospecific glucuronidation (UGT1A9 [11]): 3- > 7- > 3′- > 4′-O-glucuronide
